US20180000942A1, “COMPOSITIONS FOR DRUG ADMINISTRATION” (priority 2013, published 2018)

How the values were obtained:
[1] = New Zealand White, rabbit, in vivo
Method: Thereafter, the animals return to consciousness. At individual time point over a two hour period, 1 mL blood samples are collected from the central ear artery. […] All samples are stored at −70° C. until assaying for melatonin. Melatonin is measured using a commercial ELISA kit manufactured by GenWay Biotech Inc., San Diego, Calif.

human nasal epithelium = experiment: Irritation of nasal mucosa on daily intranasal administration; settings: […] in OTC nasal saline, 33 days
blood glucose [2] = experiment: Insulin eye drops with absorption enhancer in xylazine/ketamine anesthetized rats, blood glucose
[3] = Bioavailability of antisense oligonucleotide given intrajejunally; format: in vivo, Cynomolgus monkeys; settings: AUC over 240 minutes relative to reference
Method: An approximately 7,000 Dalton antisense oligonucleotide (ASO) with a modified backbone (phosphorothioate oligonucleotide as described in U.S. Pat. No. 7,132,530) mixed with alkylglycoside tetradecyl-beta-D-maltoside (Intravail™), was administered to six Cynomolgus monkeys canulated into the jejunum at a dose of 10 mg/kg. The animals were fasted prior to administration. Test agents were dissolved in PBS buffer and injected through the cannula into the jejunum of each animal in a 1.5 mL volume or administered subcutaneously (s.c.) as noted in Table VIII.
The protocol involved a 3 way crossover in which each animal had the first 3 test agents in Table VIII administered on 3 different dates. There was a 1 week washout period between dosing dates. […] Analysis of the blood levels was conducted using quantitative analysis involving solid phase extraction using cationic polystyrene nanoparticles. […]
Quantitative analysis was performed with capillary gel electrophoresis of the extracted samples. […] Using the data obtained from CGE analysis, quantitation of phosphorothioate oligonucleotides was carried out. The amount of oligonucleotides in the samples (nON) was calculated using the following formula: […]
The relative bioavailabilities were determined as the ratio of each AUC divided by the AUC for the intravenously administered drug. […]

blood glucose [4] = experiment: Insulin eye drops with […] and nose drops with 0.5% tetradecyl maltoside, blood glucose; format: in vivo, rat; settings: insulin nose drops with 0.5% tetradecyl maltoside added after 120 min
in vivo = settings: other: buccal, 60 mg

SMILES: COc1ccc2[nH]cc(CCNC(C)=O)c2c1 [melatonin, 5-methoxy-N-acetyltryptamine]
- time to maximal concentration versus tablets without alkyl saccharides [1]: approximately one half the time

SMILES: CCCCCCCCCCCCCCO[C@@H]1O[C@H](CO)[C@@H](O[C@H]2O[C@H](CO)[C@@H](O)[C@H](O)[C@H]2O)[C@H](O)[C@H]1O [Tetradecyl Maltoside, n-tetradecyl-4-O-α-D-glucopyranosyl-β-D-glucopyranoside]
- irritation of the nasal mucosa (human nasal epithelium): no observable irritation
- effect as absorption enhancer for ocular insulin (blood glucose lowering), in words (blood glucose [2]; 0.5% enhancer): effective
- effect as absorption enhancer for ocular insulin (blood glucose lowering), in words (blood glucose [2]; […] enhancer): effective
- Average Bioavailability (n = 6) [3]: up to 18%
- Blood Glucose (blood glucose [4]; time 150 min): 74 mg/dL
- Blood Glucose (blood glucose [4]; time 165 min): 76 mg/dL
- Blood Glucose (blood glucose [4]; time 180 min): 68 mg/dL

SMILES: O=C(c1ccc(OCCN2CCCCC2)cc1)c1c(-c2ccc(O)cc2)sc2cc(O)ccc12 [raloxifene, Raloxifene]
- bioavailability (in vivo): ≥ 4%
